Data as given in patent publication US11098077B2, “Locked nucleic acid cyclic dinucleotide compounds and uses thereof” (CHINOOK THERAPEUTICS, INC., priority 2016, dated 2021).
pEC50: −log10 of the molar value.

How the values were obtained:
[1] = target: T1, hSTING REF allele (Homo sapiens, UniProt Q86WV6); experiment: Differential scanning fluorometry (DSF) binding to purified STING AA140-379, REF allele; conditions: for hSTING Tm Shift REF: DSF, ligand 1 mM, 1 mg/ml STING AA140-379; for Tm shift compared with 2′3′-RR-(A)(A) and 2′3′-(G)(A): for the REF allele
T1 construct: DNA encoding amino acids 140-379 (amino acid numbering corresponding to Swiss Prot Q86WV6); 6xHIS (N, cleaved yes); SUMO (N, cleaved yes); made in house; host or cells: Rosetta2 (DE3) E. coli
Experimental: (§1) Cells were grown in lysogeny broth at 37° C. until a […] absorbance of 0.6 was reached. […] Cell pellets were re-suspended on ice in a buffer containing 50 mM Tris hydrochloride (Tris-HCl) pH 7.5, 500 mM sodium chloride (NaCl), 20 mM imidazole, 10% glycerol, 1 mM tris(2-carboxyethyl)phosphine hydrochloride (TCEP) and protease inhibitor tablet (Pierce) (Buffer A). Cells were lysed using an S-450D sonifier (Emmerson industrial) on ice. […] Protein was aliquoted, flash frozen in liquid nitrogen and stored at −80° C. until use.
(§2) The protein is heated in the presence of a dye that binds to and fluoresces in hydrophobic environments. The protein is thermally denatured by heating resulting in increased dye binding to the unfolded protein and fluorescence. The temperature midpoint (Tm) of a proteins denaturation is established by calculating the half maximal value of the denaturation curve. The temperature midpoint of the protein in the presence of a ligand is directly related to the affinity of the ligand for the protein and therefore its ability to stabilize the protein at higher temperatures.
(§3) Each of wild type hSTING, HAQ allele hSTING and REF allele hSTING were used with each of the reference compounds and compounds of the invention as listed in Table 4. Samples were placed in hard shell PCR plate (Bio-Rad). The fluorescence as a function of temperature was recorded in a CFX 96 real time PCR machine (Bio-Rad) reading on the HEX channel, excitation 450-490, emission 560-580 nm. The temperature gradient was from 15-80° C. ramping 0.5° C. per 15 seconds and recording every 0.5° C. After subtraction of the background signal from a sample lacking protein and ligand. The midpoint temperature (Tm) was calculated by fitting the curves of the fluorescence as a function of temperature to a Boltzmann sigmoidal function (Graph Pad Prism).

[2] = target: T2, hSTING HAQ allele in THP1-Dual cells (Homo sapiens, UniProt Q86WV6, G230A/H232R/R293Q/R71H); experiment: THP1-Dual IRF-3 inducible secreted luciferase reporter assay (type I interferon activation), without digitonin; format: cell-based
T2 construct: a human monocyte cell line containing the hSTING HAQ allele; host or cells: THP1-Dual cells
Experimental: After 30 minutes, cells were washed and fresh RPMI media containing 10% FBS was added, and cells were incubated at 37° C. with 5% CO2 Cell culture supernatants from each sample were collected after overnight incubation, and 10 μL of the cell culture supernatants was added to 50 μL QUANTI-Luc reagent (Invivogen). Type I interferon activation was determined by measuring secreted luciferase levels on a SpectraMax M3 spectrophotometer (Molecular Devices).

[3] = target: T3, hSTING HAQ allele (Homo sapiens, UniProt Q86WV6, G230A/H232R/R293Q); experiment: Differential scanning fluorometry (DSF) binding to purified STING AA140-379, HAQ allele; conditions: ligand 1 mM, 1 mg/ml STING AA140-379
T3 construct: DNA encoding amino acids 140-379 (amino acid numbering corresponding to Swiss Prot Q86WV6); 6xHIS (N, cleaved yes); SUMO (N, cleaved yes); made in house; host or cells: Rosetta2 (DE3) E. coli
Experimental: as §1, §2, §3

[4] = target: T4, hSTING WT (Homo sapiens, UniProt Q86WV6, H232R); experiment: Differential scanning fluorometry (DSF) binding to purified STING AA140-379, wild type; conditions: for hSTING Tm Shift WT: DSF, ligand 1 mM, 1 mg/ml STING AA140-379; for Tm shift compared with reference compound 2′3′-RR-(A)(A): for all three alleles (WT, HAQ, REF)
T4 construct: DNA encoding amino acids 140-379 (amino acid numbering corresponding to Swiss Prot Q86WV6); 6xHIS (N, cleaved yes); SUMO (N, cleaved yes); made in house; host or cells: Rosetta2 (DE3) E. coli
Experimental: as §1, §2, §3

T2 sequence (Q86WV6 whole entry R71H/G230A/H232R/R293Q): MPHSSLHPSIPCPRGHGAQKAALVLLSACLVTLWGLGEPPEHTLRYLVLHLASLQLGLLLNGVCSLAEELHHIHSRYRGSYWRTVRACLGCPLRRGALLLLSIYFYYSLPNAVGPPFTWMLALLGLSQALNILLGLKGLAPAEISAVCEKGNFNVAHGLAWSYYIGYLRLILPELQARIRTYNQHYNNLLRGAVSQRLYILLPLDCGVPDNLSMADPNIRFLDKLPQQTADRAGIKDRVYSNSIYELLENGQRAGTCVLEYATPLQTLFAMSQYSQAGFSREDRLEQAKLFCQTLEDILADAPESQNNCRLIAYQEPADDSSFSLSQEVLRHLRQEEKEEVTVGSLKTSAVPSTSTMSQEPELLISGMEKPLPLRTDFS
T4 sequence (Q86WV6 140-379 H232R limits assumed): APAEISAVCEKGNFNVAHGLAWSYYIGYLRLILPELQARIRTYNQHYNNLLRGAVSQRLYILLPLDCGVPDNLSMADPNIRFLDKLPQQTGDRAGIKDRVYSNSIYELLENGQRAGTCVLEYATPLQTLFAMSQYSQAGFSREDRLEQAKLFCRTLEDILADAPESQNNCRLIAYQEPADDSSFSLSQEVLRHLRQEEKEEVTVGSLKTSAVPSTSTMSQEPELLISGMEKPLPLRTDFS
T1 sequence (Q86WV6 140-379): as the sequence (Q86WV6 140-379 H232R limits assumed) above, with R93H counted along it
T3 sequence (Q86WV6 140-379 G230A/H232R/R293Q limits assumed): as the sequence (Q86WV6 140-379 H232R limits assumed) above, with G91A, R154Q counted along it

Row | SMILES | hSTING Tm Shift REF [1] [°C] | pEC50 [2] | hSTING Tm Shift HAQ [3] [°C] | hSTING Tm Shift WT [4] [°C] | Tm shift compared with 2′3′-RR-(A)(A) and 2′3′-(G)(A) [1] | Tm shift compared with reference compound 2′3′-RR-(A)(A) [4]
1 | O=C(Nc1ncnc2c1ncn2[C@@H]1O[C@@]23CO[C@@H]1[C@@H]2O[P@](=O)(S)OC[C@@]12CO[C@@H]([C@H](n4cnc5c(NC(=O)c6ccccc6)ncnc54)O1)[C@@H]2O[P@](=O)(S)OC3)c1ccccc1 [Compound 4a] | 4.4 | 3.47 | 5.6 | 4.3 | – | –
2 | Nc1ncnc2c1ncn2[C@@H]1O[C@@]23CO[C@@H]1[C@@H]2O[P@@](=O)(S)OC[C@@]12CO[C@@H]([C@H](n4cnc5c(N)ncnc54)O1)[C@@H]2O[P@](=O)(S)OC3 [Compound 5b] | 8.7 | 4.71 | 18.3 | 11.3 | greater Tm shift than both 2′3′-RR-(A)(A) and 2′3′-(G)(A) | comparable to or greater than that of the reference compound 2′3′-RR-(A)(A)
3 | Nc1ncnc2c1ncn2[C@@H]1O[C@@H]2CO[P@@](=O)(S)O[C@H]3[C@H]4OC[C@]3(CO[P@@](=O)(S)O[C@@H]1[C@@H]2O)O[C@H]4n1cnc2c(N)ncnc21 [Compound 10a, dithio-(Rp,Rp)-cyclic-[A(2′,5′)p-2′O,4′C-LNA-A(3′,5′)p]] | 7.5 | 4.61 | 16.1 | 10.4 | – | –
4 | Nc1ncnc2c1ncn2[C@@H]1O[C@@H]2CO[P@](=O)(S)O[C@H]3[C@H]4OC[C@]3(CO[P@@](=O)(S)O[C@@H]1[C@@H]2O)O[C@H]4n1cnc2c(N)ncnc21 [Compound 10b, dithio-(Rp,Sp)-cyclic-[A(2′,5′)p-2′O,4′C-LNA-A(3′,5′)p]] | 7.4 | 3.96 | 13.9 | 8.7 | – | –
5 | Nc1ncnc2c1ncn2[C@@H]1O[C@@H]2CO[P@](=O)(S)O[C@H]3[C@H]4OC[C@]3(CO[P@](=O)(S)O[C@@H]1[C@@H]2O)O[C@H]4n1cnc2c(N)ncnc21 [Compound 10d, dithio-(Sp,Sp)-cyclic-[A(2′,5′)p-2′O,4′-C-LNA-A(3′,5′)p]] | 3.2 | < 3.82 | 5.0 | 4.1 | – | –
6 | CC(C)(C)[Si](C)(C)O[C@H]1[C@H]2O[P@](=O)(S)OC[C@@]34CO[C@@H]([C@H](n5cnc6c(N)ncnc65)O3)[C@@H]4O[P@](=O)(S)OC[C@H]1O[C@H]2n1cnc2c(N)ncnc21 [Compound 11a, dithio-(Rp,Rp)-cyclic-[3′-OTBS-A(2′,5′)p-2′O,4′C-LNA-A(3′,5′)p]] | 5.4 | – | 11.6 | 7.0 | – | –
7 | CC(C)(C)[Si](C)(C)O[C@H]1[C@H]2O[P@](=O)(S)OC[C@@]34CO[C@@H]([C@H](n5cnc6c(N)ncnc65)O3)[C@@H]4O[P@@](=O)(S)OC[C@H]1O[C@H]2n1cnc2c(N)ncnc21 [Compound 11b, dithio-(Rp,Sp)-cyclic-[3′-OTBS-A(2′,5′)p-2′O,4′C-LNA-A(3′,5′)p]] | −1.5 | – | 3.3 | −1.8 | – | –
8 | O=C(Nc1ncnc2c1ncn2[C@@H]1O[C@@H]2CO[P@@](=O)(S)O[C@H]3[C@H]4OC[C@]3(CO[P@@](=O)(S)O[C@@H]1[C@@H]2O)O[C@H]4n1cnc2c(NC(=O)c3ccccc3)ncnc21)c1ccccc1 [Compound 11d, dithio-(Rp,Rp)-cyclic-[3′-BzA(2′,5′)p-2′O,4′C-LNA-BzA(3′,5′)p]] | 2.4 | – | 3.7 | 2.5 | – | –
9 | O=C(Nc1ncnc2c1ncn2[C@@H]1O[C@@H]2CO[P@](=O)(S)O[C@H]3[C@H]4OC[C@]3(CO[P@@](=O)(S)O[C@@H]1[C@@H]2O)O[C@H]4n1cnc2c(NC(=O)c3ccccc3)ncnc21)c1ccccc1 [Compound 11e, dithio-(Rp,Sp)-cyclic-[3′-BzA(2′,5′)p-2′O,4′C-LNA-BzA(3′,5′)p]] | 1.2 | – | 1.5 | 1.1 | – | –
10 | O=C(Nc1ncnc2c1ncn2[C@@H]1O[C@@H]2CO[P@@](=O)(S)O[C@H]3[C@H]4OC[C@]3(CO[P@](=O)(S)O[C@@H]1[C@@H]2O)O[C@H]4n1cnc2c(NC(=O)c3ccccc3)ncnc21)c1ccccc1 [Compound 11f, dithio-(Sp,Rp)-cyclic-[3′-BzA(2′,5′)p-2′O,4′C-LNA-BzA(3′,5′)p]] | 6.5 | – | 7.5 | 6.6 | – | –
11 | Nc1ncnc2c1ncn2[C@@H]1O[C@@]23CO[C@@H]1[C@@H]2O[P@](=O)(S)OC[C@@H]1C[C@@H](O[P@](=O)(S)OC3)[C@H](n2cnc3c(N)ncnc32)O1 [Compound 21a, dithio-(Rp,Rp)-cyclic-[3′H-A(2′,5′)p-2′O,4′C-LNA-A(3′,5′)p]] | 6.2 | 4.57 | 16.2 | 9.5 | – | –
12 | Nc1ncnc2c1ncn2[C@@H]1O[C@@]23CO[C@@H]1[C@@H]2O[P@@](=O)(S)OC[C@@H]1C[C@@H](O[P@](=O)(S)OC3)[C@H](n2cnc3c(N)ncnc32)O1 [Compound 21b, dithio-(Rp,Sp)-cyclic-[3′H-A(2′,5′)p-2′O,4′C-LNA-A(3′,5′)p]] | 4.2 | 4.11 | 10.0 | 5.0 | – | –
13 | O=C(Nc1ncnc2c1ncn2[C@@H]1O[C@@]23CO[C@@H]1[C@@H]2O[P@](=O)(S)OC[C@@H]1C[C@@H](O[P@](=O)(S)OC3)[C@H](n2cnc3c(NC(=O)c4ccccc4)ncnc32)O1)c1ccccc1 [Compound 22a, dithio-(Rp,Rp)-cyclic-[3′H-BzA(2′,5′)p-2′O,4′C-LNA-BzA(3′,5′)p]] | 0.6 | – | 2.2 | 0.6 | – | –
14 | O=C(Nc1ncnc2c1ncn2[C@@H]1O[C@@]23CO[C@@H]1[C@@H]2O[P@@](=O)(S)OC[C@@H]1C[C@@H](O[P@](=O)(S)OC3)[C@H](n2cnc3c(NC(=O)c4ccccc4)ncnc32)O1)c1ccccc1 [Compound 22b, dithio-(Rp,Sp)-cyclic-[3′H-BzA(2′,5′)p-2′O,4′C-LNA-BzA(3′,5′)p]] | 4.6 | – | 5.9 | 4.6 | – | –
15 | Nc1ncnc2c1ncn2[C@@H]1O[C@@H]2CO[P@@](=O)(S)O[C@H]3[C@H]4OC[C@]3(CO[P@@](=O)(S)O[C@@H]1[C@@H]2F)O[C@H]4n1cnc2c(N)ncnc21 [Compound 27a, dithio-(Rp,Rp)-cyclic-[3′F-A(2′,5′)p-2′O,4′C-LNA-A(3′,5′)p]] | 10.2 | 5.00 | 18.2 | 11.8 | greater Tm shift than both 2′3′-RR-(A)(A) and 2′3′-(G)(A) | comparable to or greater than that of the reference compound 2′3′-RR-(A)(A)
16 | Nc1ncnc2c1ncn2[C@@H]1O[C@@H]2CO[P@](=O)(S)O[C@H]3[C@H]4OC[C@]3(CO[P@@](=O)(S)O[C@@H]1[C@@H]2F)O[C@H]4n1cnc2c(N)ncnc21 [Compound 27b, dithio-(Rp,Sp)-cyclic-[3′F-A(2′,5′)p-2′O,4′C-LNA-A(3′,5′)p]] | 7.1 | 4.09 | 13.2 | 8.2 | – | –
